These results are taken from ChEMBL document CHEMBL1136273, “Design and synthesis of factor Xa inhibitors and their prodrugs” (Bioorg Med Chem Lett, 2003).

Test system in one data set: not listed separately
Put plainly: Cmax in rats. Format: ADME, organism-based. To be noted: rat, in vivo.
As usually defined, the Cmax is the peak of the concentration-time curve. For `C/C(=C(\F)C(=O)Nc1ccc(-c2ccccc2S(N)(=O)=O)cc1Br)c1cccc(C(=N)N)c1`, the peak level (Cmax) was 168 ng/mL.
Compound `C/C(=C(\F)C(=O)Nc1ccc(-c2ccccc2S(N)(=O)=O)cc1Br)c1cccc(C(=N)NO)c1` had a Cmax of 630 ng/mL.

Another data set concerns the target Prothrombin (Homo sapiens, UniProt P00734). Put plainly: Inhibitory concentration required against Thrombin.
Details: not given
As a reminder, the IC50 is the concentration needed to halve the response being measured. Low readings indicate higher potency, high ones lower potency. Take `C/C(=C(\CC(N)=O)C(=O)Nc1ccc(-c2ccccc2S(N)(=O)=O)cc1)c1cccc(C(=N)N)c1`: the 50% inhibitory concentration (IC50) is 1600 nM.
The compound `C/C(=C1\CC(=O)N(c2ccc(C(=O)N3CCCC3)cc2)C1=O)c1cccc(C(=N)N)c1` returned an IC50 of 10700 nM.
The compound `C/C(=C1\CC(=O)N(c2ccc(-c3ccccc3S(N)(=O)=O)cc2)C1=O)c1cccc(C(=N)N)c1` returned an IC50 of 670 nM.
As to `C/C(=C1\CC(=O)N(c2ccc(C(C)(C)C)cc2)C1=O)c1cccc(C(=N)N)c1`, the 50% inhibitory concentration (IC50) turned out to be 76 nM.

The target in a further data set is Coagulation factor X (Homo sapiens, UniProt P00742). The data set is described as follows: Inhibitory concentration to coagulation factor X.
Chain of Coagulation factor X (P00742 41-179 limits assumed): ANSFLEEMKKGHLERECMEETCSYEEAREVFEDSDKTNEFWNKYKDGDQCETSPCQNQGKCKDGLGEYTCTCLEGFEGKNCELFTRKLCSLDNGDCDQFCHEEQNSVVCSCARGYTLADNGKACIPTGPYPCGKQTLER
Chain of Coagulation factor X (P00742 235-488 limits assumed): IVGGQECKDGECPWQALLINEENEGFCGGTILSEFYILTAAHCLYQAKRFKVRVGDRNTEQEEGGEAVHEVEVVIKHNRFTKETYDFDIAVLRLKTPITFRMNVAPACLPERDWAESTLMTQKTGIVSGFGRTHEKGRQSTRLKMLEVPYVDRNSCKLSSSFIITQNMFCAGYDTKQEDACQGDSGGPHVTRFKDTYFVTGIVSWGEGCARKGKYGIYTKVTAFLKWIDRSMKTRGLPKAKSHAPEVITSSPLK
Details: not given
`CNNC(=N)c1cccc(/C(C)=C(/F)C(=O)Nc2ccc(-c3ccccc3S(N)(=O)=O)cc2)c1` registered an IC50 of 28 nM.
Compound `N=C(NO)c1cccc(/C(=C(/F)C(=O)Nc2ccc(-c3ccccc3S(N)(=O)=O)cc2)n2cccn2)c1` showed a concentration for half-maximal inhibition (IC50) of 3790 nM.
`C/C(=C(\F)C(=O)Nc1ccc(-c2ccccc2S(N)(=O)=O)cc1F)c1cccc(C(=N)NO)c1` showed a 50% inhibitory concentration (IC50) of 1590 nM.
Take `C/C(=C(\F)C(=O)Nc1ccc(-c2ccccc2S(N)(=O)=O)cc1)c1cccc(C(=N)NN(C)C)c1`: the concentration for half-maximal inhibition (IC50) was found to be 490 nM.
Turning to `C/C(=C(\F)C(=O)Nc1ccc(-c2ccccc2S(N)(=O)=O)cc1)c1cccc(C(=N)NO)c1`, it took 440 nM to reach half-maximal inhibition (IC50).
`CC(c1cccc(C(=N)N)c1)C1CC(=O)N(c2ccc(-c3ccccc3S(N)(=O)=O)cc2)C1=O` (stereo unspecified) gave an IC50 of 120 nM.
Compound `C/C(=C1\CC(=O)N(c2ccc(-c3ccccc3S(N)(=O)=O)cc2)C1=O)c1cccc(C(=N)NO)c1` yielded a concentration for half-maximal inhibition (IC50) of 710 nM.
For `C/C(=C1\CC(=O)N(c2ccc(-c3ccccc3S(N)(=O)=O)cc2)C1=O)c1cccc(C(=N)NN)c1`, the IC50 is 78 nM.
On the same count and under the same terms, as for `N=C(N)c1cccc(/C(=C(/F)C(=O)Nc2ccc(-c3ccccc3S(N)(=O)=O)cc2)n2cccn2)c1`, the figure is 1 nM; as for `C/N=C(\N)c1cccc(/C(C)=C(/F)C(=O)Nc2ccc(-c3ccccc3S(N)(=O)=O)cc2)c1`, 890 nM; as for `C/C(=C1\CC(=O)N(c2ccc(C(=O)N3CCCC3)cc2)C1=O)c1cccc(C(=N)N)c1`, 180 nM.
For `CNNC(=N)c1cccc(/C(C)=C2/CC(=O)N(c3ccc(-c4ccccc4S(N)(=O)=O)cc3)C2=O)c1`, the IC50 came to 48 nM.
For `C/C(=C(\F)C(=O)Nc1ccc(-c2ccccc2S(N)(=O)=O)cc1)c1ccc2[nH]nc(N)c2c1`, it took 5910 nM to reach half-maximal inhibition (IC50).
`C/C(=C1\CC(=O)N(c2ccc(C(C)(C)C)cc2)C1=O)c1cccc(C(=N)N)c1` returned a 50% inhibitory concentration (IC50) of 29 nM.
Regarding `C/C(=C(\F)C(=O)Nc1ccc(-c2ccccc2S(N)(=O)=O)cc1)c1cccc(C(=N)N2CCC2)c1`, the half-maximal inhibitory concentration (IC50) amounted to 890 nM.
Compound `C/C(=C(\F)C(=O)Nc1ccc(-c2ccccc2S(N)(=O)=O)cc1Br)c1cccc(C(=N)NO)c1` displayed a half-inhibitory concentration (IC50) of 1180 nM.
Regarding `C/C(=C(\F)C(=O)Nc1ccc(-c2ccccc2S(N)(=O)=O)cc1Cl)c1cccc(C(=N)NO)c1`, half-maximal inhibition (IC50) required 750 nM.
The same measure, in the same setting: under `C/C(=C(\F)C(=O)Nc1ccc(-c2ccccc2S(N)(=O)=O)cc1)c1cccc(C(=N)NC#N)c1` stands 253 nM; under `C/C(=C(\F)C(=O)Nc1ccc(-c2ccccc2S(N)(=O)=O)cc1F)c1cccc(C(=N)NN)c1`, 110 nM.
Compound `C/C(=C(\F)C(=O)Nc1ccc(-c2ccccc2S(N)(=O)=O)cc1)c1cccc(C(=N)NNc2ccccc2)c1` registered an IC50 of 750 nM.
On the same count and under the same terms, under `C/C(=C(\F)C(=O)Nc1ccc(-c2ccccc2S(N)(=O)=O)cc1)c1cccc(C(=N)NNCC(F)(F)F)c1` stands 420 nM; under `C/C(=C(\F)C(=O)Nc1ccc(-c2ccccc2S(N)(=O)=O)cc1Br)c1cccc(C(=N)NN)c1`, 57 nM; under `C/C(=C(\F)C(=O)Nc1ccc(-c2ccccc2S(N)(=O)=O)cc1Cl)c1cccc(C(=N)NN)c1`, 41 nM.

Test system in another data set: not listed separately
The data set is described as follows: Oral bioavailability in dog. Format: ADME, organism-based, Canis lupus familiaris. Conditions: in vivo.
A word on the bioavailability: it is dose-corrected exposure relative to a reference, in per cent. Low values mean little systemic uptake, high ones much systemic uptake. Regarding `N=C(NO)c1cccc(/C(=C(/F)C(=O)Nc2ccc(-c3ccccc3S(N)(=O)=O)cc2)n2cccn2)c1`, the bioavailability came to 25%.
The compound `N=C(N)c1cccc(/C(=C(/F)C(=O)Nc2ccc(-c3ccccc3S(N)(=O)=O)cc2)n2cccn2)c1` registered a bioavailability of less than 5%.
